Results as given in ChEMBL document CHEMBL5244231, “Total synthesis, chemical modification and structure-activity relationship of bufadienolides” (Eur J Med Chem, 2020).
pIC50, pKi: −log10 of the molar value.

Assays:
NCI-H2228 = test: Antiproliferative activity against human NCI-H2228 cells assessed as cell growth inhibition by MTT assay; assay type: functional, cell-based
MV4-11 [1] = test: Antiproliferative activity against human MV4-11 cells assessed as cell growth inhibition by MTT assay; assay type: functional, cell-based
MCF7 = test: Antiproliferative activity against human MCF7 cells assessed as cell growth inhibition by MTT assay; assay type: functional, cell-based
HepG2 = test: Antiproliferative activity against human HepG2 cells assessed as cell growth inhibition by MTT assay; assay type: functional, cell-based
HeLa [2] = test: Antiproliferative activity against human HeLa cells assessed as cell growth inhibition by MTT assay; assay type: functional, cell-based
Jurkat = test: Antiproliferative activity against human Jurkat cells assessed as cell growth inhibition by MTT assay; assay type: functional, cell-based
PC-3 [3] = test: Antiproliferative activity against human PC-3 cells assessed as cell growth inhibition by MTT assay; assay type: functional, cell-based
MV4-11 [4] = test: Antitumor activity in human MV4-11 cells xenografted in mouse assessed as tumor growth inhibition at 2 mg/kg, iv administered every other day for 21 days relative to control; assay type: functional; conditions: MV4-11, 504 h, time 21 day
Daudi = test: Antiproliferative activity against human Daudi cells assessed as cell growth inhibition by MTT assay; assay type: functional, cell-based
HT-1080 = test: Antiproliferative activity against human HT-1080 cells assessed as cell growth inhibition by MTT assay; assay type: functional, cell-based
AGS = test: Antiproliferative activity against human AGS cells assessed as cell growth inhibition by MTT assay; assay type: functional, cell-based
MV4-11 [5] = test: Antitumor activity in human MV4-11 cells xenografted in mouse assessed as tumor growth inhibition at 4 mg/kg, IG administered every other day for 21 days relative to control; assay type: functional; conditions: MV4-11, po, 504 h, time 21 day
[6] = biological target: Sodium/potassium-transporting ATPase; test: Inhibition of NA+/K+ ATPase (unknown origin) activity; assay type: protein-complex assay, Homo sapiens
PC-3 [7] = test: Antiproliferative activity against human PC-3 cells assessed as cell growth inhibition; assay type: functional, cell-based
LNCaP [8] = test: Antiproliferative activity against human LNCaP cells assessed as cell growth inhibition; assay type: functional, cell-based
[9] = biological target: Sodium/potassium-transporting ATPase; test: Inhibition of NA+/K+ ATPase (unknown origin) activity assessed as inhibition constant; assay type: protein-complex assay, Homo sapiens
DU-145 = test: Antiproliferative activity against human DU-145 cells assessed as cell growth inhibition; assay type: functional, cell-based
Androgen receptor = biological target: T1, Androgen receptor (Homo sapiens, UniProt P10275); test: Binding affinity to AR (unknown origin) incubated for 4 hrs by fluorescence polarization assay
T1 sequence (P10275 whole entry): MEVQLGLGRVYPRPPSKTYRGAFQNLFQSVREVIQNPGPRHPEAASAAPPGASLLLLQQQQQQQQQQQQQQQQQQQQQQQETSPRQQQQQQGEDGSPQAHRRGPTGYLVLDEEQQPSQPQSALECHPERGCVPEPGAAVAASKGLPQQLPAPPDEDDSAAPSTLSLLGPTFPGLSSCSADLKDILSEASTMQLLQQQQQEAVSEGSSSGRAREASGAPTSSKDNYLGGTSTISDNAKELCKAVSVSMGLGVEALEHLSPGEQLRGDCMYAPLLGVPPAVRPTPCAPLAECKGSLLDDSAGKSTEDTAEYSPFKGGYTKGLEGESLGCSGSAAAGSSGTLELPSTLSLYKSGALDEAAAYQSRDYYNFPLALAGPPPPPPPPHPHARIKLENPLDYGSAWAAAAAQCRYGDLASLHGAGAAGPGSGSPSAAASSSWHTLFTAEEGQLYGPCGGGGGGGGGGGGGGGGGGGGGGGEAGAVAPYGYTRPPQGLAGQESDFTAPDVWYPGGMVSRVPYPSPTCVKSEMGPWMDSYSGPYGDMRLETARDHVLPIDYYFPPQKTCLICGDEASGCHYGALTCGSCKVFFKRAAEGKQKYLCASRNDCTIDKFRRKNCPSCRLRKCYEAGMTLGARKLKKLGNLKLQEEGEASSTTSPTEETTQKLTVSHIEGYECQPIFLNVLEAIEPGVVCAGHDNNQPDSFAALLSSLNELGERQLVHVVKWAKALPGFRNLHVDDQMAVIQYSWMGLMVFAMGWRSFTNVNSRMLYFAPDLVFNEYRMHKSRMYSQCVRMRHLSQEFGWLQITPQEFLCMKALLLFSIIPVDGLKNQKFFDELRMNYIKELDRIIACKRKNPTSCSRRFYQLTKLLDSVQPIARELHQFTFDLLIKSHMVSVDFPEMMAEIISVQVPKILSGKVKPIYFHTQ

LNCaP [10] = test: Antiproliferative activity against human LNCaP cells assessed as cell growth inhibition incubated for 48 hrs by MTT assay; assay type: functional, cell-based
PC-3 [11] = test: Antiproliferative activity against human PC-3 cells assessed as cell growth inhibition incubated for 48 hrs by MTT assay; assay type: functional, cell-based; conditions: PC-3, 48 h
A549 = test: Antiproliferative activity against human A549 cells assessed as cell growth inhibition incubated for 72 hrs by MTT assay; assay type: functional, cell-based; conditions: A549, 72 h
HeLa [12] = test: Antiproliferative activity against human HeLa cells assessed as cell growth inhibition incubated for 72 hrs by MTT assay; assay type: functional, cell-based

C[C@]12CC[C@H](OC(=O)NC3CCNCC3)C[C@H]1CC[C@@H]1[C@@H]2CC[C@]2(C)[C@@H](c3ccc(=O)oc3)CC[C@]12O
pIC50 (NCI-H2228): 9.52 | pIC50 (MV4-11 [1]): 9.52 | pIC50 (MCF7): 9.52 | pIC50 (HepG2): 9.52 | pIC50 (HeLa [2]): 9.52 | pIC50 (Jurkat): 9.52 | pIC50 (PC-3 [3]): 9.52 | inhibition in vivo at 2 mg/kg (MV4-11 [4]): 100% | pIC50 (Daudi): 9.52 | pIC50 (HT-1080): 9.52 | pIC50 (AGS): 9.52 | inhibition in vivo at 4 mg/kg (MV4-11 [5]): 100%

C[C@]12CC[C@H](O)C[C@H]1CC[C@H]1C3=CC[C@H](c4ccc(=S)oc4)[C@@]3(C)CC[C@@H]12
pIC50 [6]: 4.45

CN(C)C(=O)/C=C/C1=CO[C@]23CCC1[C@@]2(C)CC[C@H]1[C@H]3CC[C@@H]2C[C@@H](O)CC[C@@]21C
pIC50 (PC-3 [7]): 5.00 | pIC50 (LNCaP [8]): 5.00 | pKi [9]: 4.15 | pIC50 (DU-145): 5.00

C[C@]12CC[C@H](O)CC1CCC1C3=CC[C@H](c4ccc(=O)oc4)[C@@]3(C)CCC12 (some centres undefined)
pIC50 (Androgen receptor): < 4.30

C[C@]12CC[C@H](OC(=O)N3CCNCC3)C[C@H]1CC[C@@H]1[C@@H]2CC[C@]2(C)[C@@H](c3ccc(=O)oc3)CC[C@]12O
pIC50 (HeLa [2]): 9.11

C[C@]12CC[C@H](O)CC1CCC1=C3CC[C@H](c4ccc(=O)oc4)[C@@]3(C)CCC12 (some centres undefined)
pIC50 [6]: 5.25 | pIC50 (LNCaP [10]): 5.17 | pIC50 (Androgen receptor): < 4.30 | pIC50 (PC-3 [11]): 4.79

C[C@]12CC[C@H](OC(=O)C3CCNCC3)C[C@H]1CC[C@@H]1[C@@H]2CC[C@]2(C)[C@@H](c3ccc(=O)oc3)CC[C@]12O
pIC50 (A549): 9.47 | pIC50 (HeLa [12]): 9.12

C[C@]12CC[C@H](O)C[C@H]1CC[C@@H]1[C@@H]2CC[C@]2(C)[C@@H](c3ccc(=O)[nH]c3)CC[C@]12O
pIC50 (PC-3 [7]): 5.00 | pIC50 (LNCaP [8]): 5.00 | pKi [9]: 4.15 | pIC50 (DU-145): 5.00
